# Experimental data reported in ChEMBL document CHEMBL4028853, “Microbiota-Host Transgenomic Metabolism, Bioactive Molecules from the Inside” (J Med Chem, 2018).
# Legend:
# [1] = target: T1, Free fatty acid receptor 3 (Homo sapiens, UniProt O14843); test: Agonist activity at human GPCR41 transfected in HEK293 cells assessed as [35S]GTPgammaS binding by scintillation counting method; type: functional, cell-based
# T1 sequence (O14843 whole entry): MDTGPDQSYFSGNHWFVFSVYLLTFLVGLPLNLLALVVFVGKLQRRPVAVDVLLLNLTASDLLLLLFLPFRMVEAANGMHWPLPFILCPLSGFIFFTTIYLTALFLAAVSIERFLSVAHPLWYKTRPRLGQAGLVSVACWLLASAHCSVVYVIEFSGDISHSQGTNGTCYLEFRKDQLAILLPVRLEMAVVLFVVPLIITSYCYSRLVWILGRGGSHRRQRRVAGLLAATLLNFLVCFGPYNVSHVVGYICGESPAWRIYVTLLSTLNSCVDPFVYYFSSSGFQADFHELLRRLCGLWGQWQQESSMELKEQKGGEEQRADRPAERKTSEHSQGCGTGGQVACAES
# [2] = target: T2, Free fatty acid receptor 2 (Homo sapiens, UniProt O15552); test: Agonist activity at human GPCR43 transfected in HEK293 cells assessed as [35S]GTPgammaS binding by scintillation counting method
# T2 sequence (O15552 whole entry): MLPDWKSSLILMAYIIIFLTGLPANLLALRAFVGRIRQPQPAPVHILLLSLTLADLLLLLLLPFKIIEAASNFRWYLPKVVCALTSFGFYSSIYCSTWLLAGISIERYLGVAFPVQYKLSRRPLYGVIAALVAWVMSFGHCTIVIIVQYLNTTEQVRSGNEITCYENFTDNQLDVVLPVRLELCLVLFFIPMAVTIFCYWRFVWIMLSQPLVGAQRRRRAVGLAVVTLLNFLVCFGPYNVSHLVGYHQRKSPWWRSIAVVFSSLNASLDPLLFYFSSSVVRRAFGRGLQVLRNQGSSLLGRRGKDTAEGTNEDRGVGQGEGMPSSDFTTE
Structure (SMILES),EC50 [1] [µM],EC50 [2] [µM]
CC(=O)O [ACETIC ACID],12 to 274,250 to 500
CCCC(=O)O [BUTYRIC ACID],12 to 274,–
CCC(=O)O [PROPIONIC ACID],12 to 274,–
